Source: patent US20250042880A1 (UNIVERSITY OF KENTUCKY RESEARCH FOUNDATION, priority 2021, published 2025)
“Also recorded” adds a separate entry of the source.

Key:
[1] = system: AMPK, mTOR and Wnt signaling; assay: Western blotting of cell signaling pathways in CRC cells; type: cell-based
Protocol: Western blotting-Western blotting was carried out following previously reported procedures (50). Cells were incubated in 6-well plates and were treated with either DMSO or compounds dissolved in DMSO at indicated concentrations. Cells were lysed in 500 μl of lysis buffer: 50 mM HEPES, 100 mM NaCl, 2 mM EDTA, 1% (v/v) glycerol, 50 mM NaF, 1 mM Na3VO4, 1% (v/v) Triton X-100, with protease inhibitors (Sigma, P8340). The cell lysates were centrifuged (18,000×g, 10 min) and then 6× protein loading buffer was added to the suppernatants. The samples were boiled for 3 min and analyzed by standard Western blotting methods with the indicated antibodies.
Western blotting was performed as previously reported procedures (41). Cells were split into 6-well plates and incubated for 24 hours. Either DMSO or compounds dissolved in DMSO at indicated concentrations were added to each well for another 24 hours. Cells were lysed in 500 μL of lysis buffer containing 50 mmol/L HEPES, 100 mmol/L NaCl, 2 mmol/L EDTA, 1% (v/v) glycerol, 50 mmol/L NaF, 1 mmol/L Na3VO4, 1% (v/v) Triton X-100, and protease inhibitors (Sigma, P8340). Cell lysates were centrifuged for 10 minutes (18,000×g), and the supernatants were mixed with 6×protein loading buffer and boiled for 3 minutes. The samples were analyzed by standard Western blotting methods using the appropriate antibodies.

GLUT1 = target: T1, GLUT1 (Homo sapiens, UniProt P11166); settings: cited from earlier work
T1 sequence (P11166 1-492): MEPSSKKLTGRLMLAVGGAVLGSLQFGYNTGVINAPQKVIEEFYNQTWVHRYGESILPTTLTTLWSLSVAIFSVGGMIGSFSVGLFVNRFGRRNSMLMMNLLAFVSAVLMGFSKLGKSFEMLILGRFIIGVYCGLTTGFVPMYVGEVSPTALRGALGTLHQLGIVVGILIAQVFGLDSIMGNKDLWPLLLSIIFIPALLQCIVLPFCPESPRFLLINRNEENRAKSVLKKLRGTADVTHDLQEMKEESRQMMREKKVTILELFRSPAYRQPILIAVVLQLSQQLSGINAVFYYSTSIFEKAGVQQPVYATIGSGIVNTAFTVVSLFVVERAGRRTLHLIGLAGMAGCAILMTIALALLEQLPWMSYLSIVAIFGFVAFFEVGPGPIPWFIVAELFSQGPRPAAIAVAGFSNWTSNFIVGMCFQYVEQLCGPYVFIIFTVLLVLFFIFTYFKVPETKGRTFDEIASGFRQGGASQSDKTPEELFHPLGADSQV

DLD-1 CRC cells = settings: cited from earlier work
[2] = system: A2780 ovarian cancer cells; settings: cited from earlier work

Row | Structure (SMILES) | effects on AMPK (pAMPK, pACC), mTOR (p70S6K, pS6) and Wnt (Axin2, c-Myc) signaling ([1]; 3 μM alone, LS174T cells, 24 hours) | AMPK phosphorylation (activation) ([1]; 3 μM, LS174T CRC cells) | potency for the GLUT1 transporter (GLUT1) | selectivity factor for GLUT1 in comparison with GLUT2, GLUT3 and GLUT4 (GLUT1) | IC50 (DLD-1 CRC cells) [nM] | sensitivity of A2780 ovarian cancer cells [2]
1 | O=c1c(-c2ccc(Cl)c(Cl)c2)coc2cc(OCCN3CCN(CCO)CC3)ccc12 [DBI-6, 3-(3,4-dichlorophenyl)-7-(2-(4-(2-hydroxyethyl)piperazin-1-yl)ethoxy)-4H-chromen-4-one] | activated AMPK signaling (pAMPK and pACC) and inhibited mTOR signaling (p70S6K and pS6); also recorded: more active than DBI-1 | best activity in AMPK activation | – | – | – | –
2 | Cc1c(NC(=O)c2cc(C(N)=O)nc3cc(F)ccc23)c(C(F)(F)F)nn1Cc1ccc(C#N)cc1 [BAY-876, N^4-[1-(4-cyanobenzyl)-5-methyl-3-(trifluoromethyl)-1H-pyrazol-4-yl]-7-fluoroquinoline-2,4-dicarboxamide] | – | – | single-digit, nanomolar | > 100 | 2 | resistant
